Experimental data taken from ChEMBL document CHEMBL1135163, “Design, synthesis, and evaluation of postulated transient intermediate and substrate analogues as inhibitors of 4-hydroxyphenylpyruvate dioxygenase” (Bioorg Med Chem Lett, 2002).

molecular target: 4-hydroxyphenylpyruvate dioxygenase (Sus scrofa, UniProt Q02110); experiment: In vitro inhibition against of 4-Hydroxyphenylpyruvate dioxygenase (4-HPPD) from pig liver by the enol borate method
Sequence (Q02110 whole entry): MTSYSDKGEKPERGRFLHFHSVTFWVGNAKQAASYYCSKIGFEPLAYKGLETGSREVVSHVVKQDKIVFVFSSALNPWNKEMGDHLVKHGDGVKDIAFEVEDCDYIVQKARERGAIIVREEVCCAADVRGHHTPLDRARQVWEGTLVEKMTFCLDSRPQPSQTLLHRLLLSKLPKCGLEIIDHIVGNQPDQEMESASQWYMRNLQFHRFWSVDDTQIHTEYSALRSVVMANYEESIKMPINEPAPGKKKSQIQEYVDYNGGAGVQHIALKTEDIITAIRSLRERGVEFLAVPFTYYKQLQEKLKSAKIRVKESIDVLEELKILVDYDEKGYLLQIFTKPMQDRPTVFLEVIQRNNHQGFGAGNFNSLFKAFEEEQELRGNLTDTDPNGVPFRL

IC50 | SMILES
120 µM | COC(=O)C1OC1(C)c1ccccc1 (stereo unspecified)
0.5 µM | O=C1OCC(c2ccccc2)=C1O
> 900 µM | C=C(c1ccccc1)C(O)C(=O)OC (stereo unspecified)
> 900 µM | C=C(c1ccccc1)C(O)C(=O)O (stereo unspecified)

The next lines start with the compound.

SMILES | IC50
CCOC(=O)COc1ccc(O)cc1 | 73 µM
O=C(O)COc1ccc(O)cc1 | 6 µM
CC(Oc1ccc(O)cc1)C(=O)O (stereo unspecified) | 93 µM
CCOC(=O)C(C)Oc1ccc(O)cc1 (stereo unspecified) | 588 µM
COC(=O)CC12OC1C(=O)C(OC)=CC2=O (stereo unspecified) | 500 µM
COC(=O)COc1ccc(O)cc1 | 223 µM
COC(=O)CC1=CC(=O)C(OC)=CC1=O | 150 µM
